Experimental data published in patent US10087185B2 (Janssen Pharmaceutica NV, priority 2016, dated 2018).

Biological target: TARP γ8 dependent AMPA receptor (GRIA1o-CACNG8 fusion construct) (Homo sapiens (Human), UniProt P42261+Q8WXS5)
Assay: Calcium flux assay (FLIPR), inhibition of glutamate response of GluA1o-γ8 channel
Assay type: cell-based
Settings: HEK293 cells stably expressing GRIA1o-CACNG8 fusion; calcium flux after 15 μM glutamate; negative log of the IC50 in molar
Excerpt: This assay was used to test compounds for their ability to inhibit TARP γ8 dependent AMPA receptor activity. The AMPA receptor is a non-selective cation channel activated by glutamate. […] But, this desensitization is incomplete, and a substantial steady-state current remains in the sustained presence of glutamate (Cho et al. (2007). “Two families of TARP isoforms that have distinct effects on the kinetic properties of AMPA receptors and synaptic currents.” Neuron 55(6): 890-904).
An in vitro assay was used to determine the potency of test compounds as inhibitors of the glutamate response of the channel formed by GluA10-γ8. To ensure a 1:1 stoichiometry of GluA1o and γ8 subunits in the expressed channel, a fusion of the cDNAs for GRIA1o and CACNG8 was used. Following Shi et al (2009) “The stoichiometry of AMPA receptors and TARPs varies by neuronal cell type.” Neuron 62(5): 633-640), the C-terminus of the cDNA for GRIA1o was fused to the N-terminus of the cDNA for γ8. The linker sequence was […]. Channels expressed with this construct appear to have similar properties to channels formed by co-expression of GRIA1o with an excess of CACNG8 (Shi et al. 2009). A clonal cell line in HEK293 cells stably expressing this construct, with a geneticin selection marker, was generated for use in this assay.
Cell expressing the GRIA1o-CACNG8 fusion construct were grown in a monolayer in 96- or 384-well microtiter plates. They were washed with assay buffer (135 mM NaCl, 4 mM KCl, 3 mM CaCl2, 1 mM MgCl2, 5 mM glucose, 10 mM HEPES, pH 7.4, 300 mOs) using a Biotek EL405 plate washer. The cells were then loaded with a calcium-sensitive dye (Calcium-5 or Calcium-6, Molecular Devices) and the test compounds at a range of concentrations. Calcium flux following the addition of 15 μM glutamate was monitored using a Molecular Devices FLIPR Tetra.
The fluorescence in each well was normalized to the fluorescence of negative and positive control wells. The negative control wells had no added compounds, and the positive control wells had been incubated with 10 μM CP465022 (a non-subtype-selective AMPA receptor antagonist) (Lazzaro et al. (2002). “Functional characterization of CP-465,022, a selective, noncompetitive AMPA receptor antagonist.” Neuropharmacology 42(2): 143-153). The responses to glutamate as functions of the test compound concentrations were fitted to a four-parameter logistic function. The fitted parameter corresponding to the midpoint was taken to be the potency of inhibition of the compound. The data in Table 4 below illustrates the observed potency for the compounds described herein. pIC50 refers to the negative log of the IC50 in molar.

Sequence of TARP γ8 dependent AMPA receptor (GRIA1o-CACNG8 fusion construct) (P42261 other isoform, or with tags, fused parts or gaps): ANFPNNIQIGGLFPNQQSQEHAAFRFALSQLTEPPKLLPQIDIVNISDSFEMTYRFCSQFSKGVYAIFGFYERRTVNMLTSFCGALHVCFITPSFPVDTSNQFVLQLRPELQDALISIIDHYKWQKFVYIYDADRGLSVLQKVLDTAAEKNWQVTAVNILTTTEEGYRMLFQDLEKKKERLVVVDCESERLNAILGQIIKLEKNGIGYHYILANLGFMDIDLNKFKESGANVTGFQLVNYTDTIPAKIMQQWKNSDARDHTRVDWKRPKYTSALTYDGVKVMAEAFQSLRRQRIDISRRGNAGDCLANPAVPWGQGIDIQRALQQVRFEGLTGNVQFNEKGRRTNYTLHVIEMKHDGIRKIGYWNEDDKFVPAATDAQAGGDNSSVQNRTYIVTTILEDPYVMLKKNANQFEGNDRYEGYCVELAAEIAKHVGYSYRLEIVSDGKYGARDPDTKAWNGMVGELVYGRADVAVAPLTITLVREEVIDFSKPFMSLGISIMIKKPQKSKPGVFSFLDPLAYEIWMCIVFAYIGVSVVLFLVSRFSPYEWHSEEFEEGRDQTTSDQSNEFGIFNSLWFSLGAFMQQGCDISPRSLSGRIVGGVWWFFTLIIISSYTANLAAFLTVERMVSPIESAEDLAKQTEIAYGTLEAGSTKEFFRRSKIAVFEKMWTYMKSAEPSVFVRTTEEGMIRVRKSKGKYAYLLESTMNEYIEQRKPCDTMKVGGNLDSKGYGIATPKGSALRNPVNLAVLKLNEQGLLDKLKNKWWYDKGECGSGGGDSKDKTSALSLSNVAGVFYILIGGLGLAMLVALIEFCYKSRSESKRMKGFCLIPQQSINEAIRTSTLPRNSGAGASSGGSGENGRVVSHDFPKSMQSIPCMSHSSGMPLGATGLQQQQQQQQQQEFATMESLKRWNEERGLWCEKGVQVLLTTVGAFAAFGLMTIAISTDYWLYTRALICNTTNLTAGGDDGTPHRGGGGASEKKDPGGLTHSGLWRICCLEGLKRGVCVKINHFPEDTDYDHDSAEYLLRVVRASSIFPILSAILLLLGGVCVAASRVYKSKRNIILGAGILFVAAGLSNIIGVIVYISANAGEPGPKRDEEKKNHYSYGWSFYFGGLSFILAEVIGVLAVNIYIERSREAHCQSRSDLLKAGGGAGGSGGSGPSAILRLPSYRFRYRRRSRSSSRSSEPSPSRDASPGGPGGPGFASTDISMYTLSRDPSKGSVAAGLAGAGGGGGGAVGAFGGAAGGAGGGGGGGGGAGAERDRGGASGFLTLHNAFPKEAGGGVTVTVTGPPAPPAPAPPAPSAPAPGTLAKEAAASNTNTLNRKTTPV

Compound | IC50
Cc1cc(-c2c(-c3cccnc3)ccc3nc(C(F)(F)F)nn23)cc2cn[nH]c12 [Example 58, 5-(7-Methyl-1H-indazol-5-yl)-6-(pyridin-3-yl)-2-(trifluoromethyl)-[1,2,4]triazolo[1,5-a]pyridine] | 0.794 nM
FC(F)c1ccc2cc(C(F)(F)F)nn2c1-c1cc(Cl)c2[nH]ncc2c1 [Example 120, 7-(7-Chloro-1H-indazol-5-yl)-6-(difluoromethyl)-2-(trifluoromethyl)pyrazolo[1,5-a]pyridine] | 0.0158 nM
CCCc1nc2c(C)cc(C(F)(F)F)c(-c3cc(C)c4c(c3)CC(=O)N4)n2n1 [Example 85, 7-Methyl-5-(8-methyl-2-propyl-6-(trifluoromethyl)-[1,2,4]triazolo[1,5-a]pyridin-5-yl)indolin-2-one] | 0.316 nM
CCc1nc2c(Cl)cc(C(F)(F)F)c(-c3cc(C)c4[nH]ncc4c3)n2n1 [Example 30, 8-Chloro-2-ethyl-5-(7-methyl-1H-indazol-5-yl)-6-(trifluoromethyl)-[1,2,4]triazolo[1,5-a]pyridine] | 3.98 nM
Cc1cc(C(F)F)c(-c2cc(Cl)c3c(c2)CC(=O)N3)n2nc(C3CC3)nc12 [Example 113, 7-Chloro-5-(2-cyclopropyl-6-(difluoromethyl)-8-methyl-[1,2,4]triazolo[1,5-a]pyridin-5-yl)indolin-2-one] | 0.316 nM
Cc1cc(-c2c(C(F)(F)F)cc(C)c3nc(C(F)(F)F)nn23)cc2cn[nH]c12 [Example 107, 8-Methyl-5-(7-methyl-1H-indazol-5-yl)-2,6-bis(trifluoromethyl)-[1,2,4]triazolo[1,5-a]pyridine] | 0.501 nM
Cc1cc(-c2c(C(F)(F)F)ccc3nc(C(C)C)nn23)cc2cn[nH]c12 [Example 37, 2-Isopropyl-5-(7-methyl-1H-indazol-5-yl)-6-(trifluoromethyl)-[1,2,4]triazolo[1,5-a]pyridine] | 0.316 nM
CCc1nc2ccc(C(F)F)c(-c3cc(Cl)c4c(c3)CC(=O)N4)n2n1 [Example 46, 7-Chloro-5-(6-(difluoromethyl)-2-ethyl-[1,2,4]triazolo[1,5-a]pyridin-5-yl)indolin-2-one] | 3.98 nM
O=C1Cc2cc(-c3c(C(F)(F)F)ccc4cc(C5CC5)nn34)cc(Cl)c2N1 [Example 68, 5-(2-Cyclopropyl-6-(trifluoromethyl)pyrazolo[1,5-a]pyridin-7-yl)-7-chloroindolin-2-one] | 0.02 nM
Cc1cc(C(F)(F)F)c(-c2cc(Cl)c3[nH]ncc3c2)n2nc(C(F)F)nc12 [Example 78, 5-(7-Chloro-1H-indazol-5-yl)-2-(difluoromethyl)-8-methyl-6-(trifluoromethyl)-[1,2,4]triazolo[1,5-a]pyridine] | 0.126 nM
CCCc1nc2c(Cl)cc(C(F)(F)F)c(-c3cc(C)c4c(c3)CC(=O)N4)n2n1 [Example 98, 5-(8-Chloro-2-propyl-6-(trifluoromethyl)-[1,2,4]triazolo[1,5-a]pyridin-5-yl)-7-methylindolin-2-one] | 0.794 nM
CCc1cc(C(F)(F)F)c(-c2cc(C)c3c(c2)CC(=O)N3)n2nc(C3CC3)nc12 [Example 82, 5-(2-Cyclopropyl-8-ethyl-6-(trifluoromethyl)-[1,2,4]triazolo[1,5-a]pyridin-5-yl)-7-methylindolin-2-one] | 0.316 nM
CCc1nc2c(C)cc(C(F)(F)F)c(-c3cc(C(F)(F)F)c4[nH]ncc4c3)n2n1 [Example 101, 2-Ethyl-8-methyl-6-(trifluoromethyl)-5-(7-(trifluoromethyl)-1H-indazol-5-yl)-[1,2,4]triazolo[1,5-a]pyridine] | 0.316 nM
FC(F)(F)c1nc2c(Cl)cc(C(F)(F)F)c(-c3cc(Cl)c4[nH]ncc4c3)n2n1 [Example 5, 8-Chloro-5-(7-chloro-1H-indazol-5-yl)-2,6-bis(trifluoromethyl)-[1,2,4]triazolo[1,5-a]pyridine] | 0.316 nM

More lines, in order of falling IC50, values ahead:

IC50 | Compound
2.51 nM | COc1cc(-c2c(C(F)F)ccc3nc(C(F)(F)F)nn23)cc2c1NC(=O)C2 [Example 20, 5-[6-(Difluoromethyl)-2-(trifluoromethyl)-[1,2,4]triazolo[1,5-a]pyridin-5-yl]-7-methoxy-indolin-2-one]
2 nM | CCc1nc2c(C)cc(C(F)F)c(-c3cc(Cl)c4[nH]ncc4c3)n2n1 [Example 115, 5-(7-Chloro-1H-indazol-5-yl)-6-(difluoromethyl)-2-ethyl-8-methyl-[1,2,4]triazolo[1,5-a]pyridine]
1.58 nM | CCc1cc(C(F)(F)F)c(-c2cc(C)c3[nH]ncc3c2)n2nc(C(F)F)nc12 [Example 88, 2-(Difluoromethyl)-8-ethyl-5-(7-methyl-1H-indazol-5-yl)-6-(trifluoromethyl)-[1,2,4]triazolo[1,5-a]pyridine]
1.26 nM | COc1cc(-c2c(C(F)(F)F)cc(C)c3nc(C(F)(F)F)nn23)cc2c1NC(=O)C2 [Example 106, 7-Methoxy-5-(8-methyl-2,6-bis(trifluoromethyl)-[1,2,4]triazolo[1,5-a]pyridin-5-yl)indolin-2-one]
1 nM | COc1ccc2nc(C(F)(F)F)nn2c1-c1cc(Cl)c2[nH]ncc2c1 [Example 50, 5-(7-Chloro-1H-indazol-5-yl)-6-methoxy-2-(trifluoromethyl)-[1,2,4]triazolo[1,5-a]pyridine]
0.794 nM | Cc1cc(-c2c(C(F)(F)F)ccc3nc(C(F)F)nn23)cc2c1NC(=O)C2 [Example 10, 7-Methyl-5-(2-(difluoromethyl)-6-(trifluoromethyl)-[1,2,4]triazolo[1,5-a]pyridin-5-yl)indolin-2-one]
0.631 nM | Cc1cc(-c2c(C(F)(F)F)ccc3nc(C4CC4)nn23)cc2c1NC(=O)C2 [Example 41, 5-(2-Cyclopropyl-6-(trifluoromethyl)-[1,2,4]triazolo[1,5-a]pyridin-5-yl)-7-methylindolin-2-one]
0.398 nM | O=C1Cc2cc(-c3c(C(F)(F)F)ccc4nc(C(F)F)nn34)cc(Cl)c2N1 [Example 9, 7-Chloro-5-(2-(difluoromethyl)-6-(trifluoromethyl)-[1,2,4]triazolo[1,5-a]pyridin-5-yl)indolin-2-one]
0.2 nM | FC(F)c1ccc2nc(C3CC3)nn2c1-c1cc(Cl)c2[nH]ncc2c1 [Example 48, 5-(7-Chloro-1H-indazol-5-yl)-2-cyclopropyl-6-(difluoromethyl)-[1,2,4]triazolo[1,5-a]pyridine]
0.158 nM | CCc1cc(C(F)(F)F)c(-c2cc(Cl)c3[nH]ncc3c2)n2nc(C3CC3)nc12 [Example 80, 5-(7-Chloro-1H-indazol-5-yl)-2-cyclopropyl-8-ethyl-6-(trifluoromethyl)-[1,2,4]triazolo[1,5-a]pyridine]
0.158 nM | Cc1cc(C(F)(F)F)c(-c2cc(Cl)c3c(c2)CC(=O)N3)n2nc(C(F)(F)F)nc12 [Example 103]
0.126 nM | Cc1cc(C(F)(F)F)c(-c2cc(Cl)c3c(c2)CC(=O)N3)n2nc(C3CC3)nc12 [Example 75, 7-Chloro-5-(2-cyclopropyl-8-methyl-6-(trifluoromethyl)-[1,2,4]triazolo[1,5-a]pyridin-5-yl)indolin-2-one]
0.1 nM | FC(F)c1ccc2nc(C(F)(F)F)nn2c1-c1cc(Cl)c2[nH]ncc2c1 [Example 16, 5-(7-Chloro-1H-indazol-5-yl)-6-(difluoromethyl)-2-(trifluoromethyl)-[1,2,4]triazolo[1,5-a]pyridine]
0.0794 nM | Cc1cc(-c2c(C(F)(F)F)ccc3cc(C(C)C)nn23)cc2cn[nH]c12 [Example 74, 5-(2-Isopropyl-6-(trifluoromethyl)pyrazolo[1,5-a]pyridin-7-yl)-7-methyl-1H-indazole]
0.0501 nM | CC(F)(F)c1ccc2nc(C(F)(F)F)nn2c1-c1cc(Cl)c2[nH]ncc2c1 [Example 53, 5-(7-Chloro-1H-indazol-5-yl)-6-(1,1-difluoroethyl)-2-(trifluoromethyl)-[1,2,4]triazolo[1,5-a]pyridine]
0.0501 nM | Cc1cc(-c2c(C(F)(F)F)ccc3cc(C4CC4)nn23)cc2cn[nH]c12 [Example 69, 5-(2-Cyclopropyl-6-(trifluoromethyl)pyrazolo[1,5-a]pyridin-7-yl)-7-methyl-1H-indazole]
0.0158 nM | FC(F)(F)c1cc2ccc(C(F)(F)F)c(-c3cc(Cl)c4[nH]ncc4c3)n2n1 [Example 63, 5-(2,6-Bis(trifluoromethyl)pyrazolo[1,5-a]pyridin-7-yl)-7-chloro-1H-indazole]
